In publication PMC4664966, “Discovery and characterization of novel inhibitors of the sodium-coupled citrate transporter (NaCT or SLC13A5)” (Scientific Reports, 2015):

Experiments:
[1] = Intra-/extracellular unbound concentration ratio (Kpuu) in HEKNaCT cells; format: in vitro ADME; details: human, ratio of free intracellular and media concentration after 1 h incubation at 1 μM, geometric mean of 3 replicates ± SD
Description: kpuu values were determined by measuring total cell and media concentrations corrected for their respective fraction unbound. Detailed methods to determine intra- and extracellular concentrations of compound in the HEKNaCT cells and human hepatocytes will be the subject of a separate manuscript that is under preparation. […]
Intra- and extracellular concentrations of compound in cellular assays. kpuu values were determined by measuring total cell and media concentrations corrected for their respective […]
fraction unbound. […]
The solution was heated to reflux until the total volume was reduced to ~25 mL.
Hexane (25 mL) was added and the mixture was brought back to reflux than allowed to slowly cool to room temperature. After standing at room temperature for 16 h, the resulting suspension was filtered and dried under high vacuum to yield (S)-2-(4-(tert-butyl)phenethyl)-2-hydroxysuccinic acid (3) as a white solid. The filtrate was allowed to stand at room temperature for 4 days. The solvent evaporated to ~15 mL and large, colorless crystals formed.
X-ray analysis. Data collection was performed on a Bruker APEX diffractometer at room temperature. Data collection consisted of 3 omega scans and low angle and three at high angle; each with 0.5 step. In addition, 2 phi scans were collected to improve the quality of the […]

human hepatocytes = experiment: Incorporation of [14C]-citrate into triglycerides by human hepatocytes; format: cell-based; details: radiolabeled citrate for 24 hours
Description: Incorporation of [^14C]-citrate into triglycerides by human hepatocytes was measured using the same procedure as above except cells were incubated with the radioactive citrate for 24 hours. Subsequently, the media was aspirated and 100 μL of isopropyl alcohol:THF (9:1) was added. The plate was shaken for 15 minutes, centrifuged at 3000 revolutions per minute for 5 minutes, and 50 μL of supernatant from each well was applied per TLC lane (Whatman LK6D Silica Gel Plates). Radiolabeled lipids were resolved using a 2-solvent system: Solvent 1 contained a 100:100:100:40:36 mixture of ethyl acetate:isopropyl alcohol:CHCl3:MeOH:0.25% KCl and Solvent 2 a 70:27:3 hexane:diethyl ether:acetic acid mixture. The TLC plate was dried under nitrogen for 30 minutes and [^14C]-standards added to a vacant lane. Bands were visualized and quantitated using a Molecular Dynamics’ Storm 860 PhosphorImager system following 18–36 hours exposure to a Phosphorimager screen.

CYP1A2 = CYP1A2 (Homo sapiens, UniProt P05177); experiment: Selectivity data (Table S1); format: in vitro ADME; details: 3 µM
[2] = molecular target: Cytochrome P450 1A2 (CYP1A2) (Homo sapiens, UniProt P05177); experiment: Selectivity data (Table S1); format: in vitro ADME
CYP3A4 = CYP3A4 (Homo sapiens, UniProt P08684); experiment: Selectivity data (Table S1); format: in vitro ADME; details: 3 µM
[3] = molecular target: Cytochrome P450 3A4 (CYP3A4) (Homo sapiens, UniProt P08684); experiment: Selectivity data (Table S1); format: in vitro ADME
[4] = molecular target: Lymphocyte-specific protein tyrosine kinase (LCK) (Homo sapiens, UniProt P06239); experiment: Selectivity data (Table S1); format: biochemical
[5] = molecular target: Monoacylglycerol acyltransferase 3 (MGAT3) (Homo sapiens, UniProt Q86VF5); experiment: Selectivity data (Table S1); format: biochemical
[6] = molecular target: Mitogen-activated protein kinase 14 (MAPK14 / P38-alpha) (Homo sapiens, UniProt Q16539); experiment: Selectivity data (Table S1); format: biochemical
[7] = molecular target: Phosphodiesterase 3A1 (PDE3A1) (Homo sapiens, UniProt Q14432); experiment: Selectivity data (Table S1); format: biochemical
[8] = molecular target: Choline transporter (CHT1) (SLC5A7) (Homo sapiens, UniProt Q9GZV3); experiment: Selectivity data (Table S1)
[9] = molecular target: Noradrenaline transporter, sodium-dependent (NAT) (Homo sapiens, UniProt P23975); experiment: Selectivity data (Table S1)
[10] = molecular target: Serotonin transporter, sodium-dependent (5-HTT) (Homo sapiens, UniProt P31645); experiment: Selectivity data (Table S1)
[11] = molecular target: Sodium channel, neuronal alpha-subunit (NaV1.1) (Homo sapiens, UniProt P35498); experiment: Selectivity data (Table S1)
[12] = molecular target: Angiotensin II receptor type 1 (AGTR1) (Homo sapiens, UniProt P30556); experiment: Selectivity data (Table S1); format: binding
[13] = molecular target: Cholecystokinin receptor B (CCKBR) (Homo sapiens, UniProt P32239); experiment: Selectivity data (Table S1); format: binding
Dopamine receptor 2 (D2) = Dopamine receptor 2 (D2) (Homo sapiens, UniProt P14416); experiment: Selectivity data (Table S1); format: binding
[14] = molecular target: Epidermal growth factor receptor (EGFR) (Homo sapiens, UniProt P00533); experiment: Selectivity data (Table S1); format: binding
[15] = molecular target: Gamma-aminobutyric acid receptor A, alpha 1 (GABRA1) (Homo sapiens, UniProt P14867+P47870); experiment: Selectivity data (Table S1); format: binding
[16] = molecular target: Muscarinic acetylcholine receptor 2 (M2) (Homo sapiens, UniProt P08172); experiment: Selectivity data (Table S1); format: binding
[17] = molecular target: Muscarinic acetylcholine receptor 3 (M3) (Homo sapiens, UniProt P20309); experiment: Selectivity data (Table S1); format: binding
[18] = molecular target: Neurokinin receptor 1 (NK1) (Homo sapiens, UniProt P25103); experiment: Selectivity data (Table S1); format: binding
[19] = molecular target: Nicotinic acetylcholine receptor complex (alpha-4 / beta-2) (Homo sapiens, UniProt P17787+P43681); experiment: Selectivity data (Table S1); format: binding
[20] = molecular target: Serotonin receptor 1A (5-HT1A) (Homo sapiens, UniProt P08908); experiment: Selectivity data (Table S1); format: binding
[21] = molecular target: Potassium voltage-gated channel, KQT-like subfamily, member 1 (KCNQ1) (Homo sapiens, UniProt P51787); experiment: in vitro
DIO mice = experiment: Plasma glucose concentrations in DIO mice, acute or sub-chronic dosing; details: single 250 mg/kg dose or 3 days 250 mg/kg BID

Monoacylglycerol acyltransferase 3 (MGAT3), sequence (Q86VF5 whole entry): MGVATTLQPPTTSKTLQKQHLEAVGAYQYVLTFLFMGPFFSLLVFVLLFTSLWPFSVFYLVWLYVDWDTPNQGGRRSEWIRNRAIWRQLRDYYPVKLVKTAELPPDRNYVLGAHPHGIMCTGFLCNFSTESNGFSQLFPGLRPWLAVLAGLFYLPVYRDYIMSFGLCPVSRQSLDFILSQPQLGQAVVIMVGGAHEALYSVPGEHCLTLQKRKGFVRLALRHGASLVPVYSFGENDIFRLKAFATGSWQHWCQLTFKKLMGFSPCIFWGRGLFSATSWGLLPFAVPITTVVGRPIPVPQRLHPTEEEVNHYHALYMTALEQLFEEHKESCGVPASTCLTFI
Dopamine receptor 2 (D2), sequence (P14416 whole entry): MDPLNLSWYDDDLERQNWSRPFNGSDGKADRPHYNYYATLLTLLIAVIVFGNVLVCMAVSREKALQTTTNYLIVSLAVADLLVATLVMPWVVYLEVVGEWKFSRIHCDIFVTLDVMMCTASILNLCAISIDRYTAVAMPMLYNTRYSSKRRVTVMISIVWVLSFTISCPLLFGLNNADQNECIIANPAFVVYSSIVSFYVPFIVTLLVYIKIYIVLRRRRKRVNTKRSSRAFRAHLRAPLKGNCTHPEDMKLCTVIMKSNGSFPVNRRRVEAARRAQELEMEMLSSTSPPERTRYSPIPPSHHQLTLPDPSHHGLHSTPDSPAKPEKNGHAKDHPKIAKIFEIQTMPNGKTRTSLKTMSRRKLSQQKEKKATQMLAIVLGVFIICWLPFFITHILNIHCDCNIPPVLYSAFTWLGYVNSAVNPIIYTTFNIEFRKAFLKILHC
Phosphodiesterase 3A1 (PDE3A1), sequence (Q14432 whole entry): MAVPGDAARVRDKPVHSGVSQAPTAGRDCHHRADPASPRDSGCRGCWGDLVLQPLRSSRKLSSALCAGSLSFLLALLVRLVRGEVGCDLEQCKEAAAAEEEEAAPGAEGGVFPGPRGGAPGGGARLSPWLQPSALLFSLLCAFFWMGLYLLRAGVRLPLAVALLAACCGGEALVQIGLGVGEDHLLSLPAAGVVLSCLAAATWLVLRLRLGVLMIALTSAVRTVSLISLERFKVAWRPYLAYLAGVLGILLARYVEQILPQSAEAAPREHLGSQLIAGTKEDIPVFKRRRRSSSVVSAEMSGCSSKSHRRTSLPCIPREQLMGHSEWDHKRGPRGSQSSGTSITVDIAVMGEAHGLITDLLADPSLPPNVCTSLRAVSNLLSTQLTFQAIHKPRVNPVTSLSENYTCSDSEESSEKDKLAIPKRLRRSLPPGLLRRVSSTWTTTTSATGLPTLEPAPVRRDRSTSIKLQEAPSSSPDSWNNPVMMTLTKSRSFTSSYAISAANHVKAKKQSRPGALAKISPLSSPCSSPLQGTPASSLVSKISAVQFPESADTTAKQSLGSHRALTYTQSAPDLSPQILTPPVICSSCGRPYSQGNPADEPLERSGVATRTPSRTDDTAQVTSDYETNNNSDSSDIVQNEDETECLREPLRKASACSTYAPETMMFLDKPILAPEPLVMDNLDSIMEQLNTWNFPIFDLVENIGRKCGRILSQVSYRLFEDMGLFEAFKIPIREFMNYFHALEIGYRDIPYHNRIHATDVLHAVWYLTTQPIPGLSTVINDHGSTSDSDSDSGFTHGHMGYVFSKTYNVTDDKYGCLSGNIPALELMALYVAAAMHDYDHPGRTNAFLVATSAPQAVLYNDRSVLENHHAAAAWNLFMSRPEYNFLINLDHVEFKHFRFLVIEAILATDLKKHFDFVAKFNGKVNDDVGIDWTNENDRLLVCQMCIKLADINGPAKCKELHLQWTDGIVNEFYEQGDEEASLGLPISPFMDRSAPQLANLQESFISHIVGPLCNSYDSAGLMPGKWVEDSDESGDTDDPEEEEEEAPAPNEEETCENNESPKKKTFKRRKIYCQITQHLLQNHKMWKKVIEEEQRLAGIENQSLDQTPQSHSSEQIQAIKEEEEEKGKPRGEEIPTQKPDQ
Cytochrome P450 1A2 (CYP1A2), sequence (P05177 whole entry): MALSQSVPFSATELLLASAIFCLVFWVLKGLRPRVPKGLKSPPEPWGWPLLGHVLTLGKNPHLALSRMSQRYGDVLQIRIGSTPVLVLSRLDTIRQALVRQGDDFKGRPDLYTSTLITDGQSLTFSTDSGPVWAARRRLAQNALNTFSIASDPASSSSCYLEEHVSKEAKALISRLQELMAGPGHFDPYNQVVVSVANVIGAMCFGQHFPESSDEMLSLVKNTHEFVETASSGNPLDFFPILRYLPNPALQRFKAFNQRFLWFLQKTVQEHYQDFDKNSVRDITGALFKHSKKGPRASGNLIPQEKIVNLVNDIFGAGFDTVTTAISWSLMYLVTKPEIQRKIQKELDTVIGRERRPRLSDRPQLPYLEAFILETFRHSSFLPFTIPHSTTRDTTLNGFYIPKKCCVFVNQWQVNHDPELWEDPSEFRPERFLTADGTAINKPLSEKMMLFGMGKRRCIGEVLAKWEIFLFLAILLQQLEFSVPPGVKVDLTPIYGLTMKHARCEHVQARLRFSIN
CYP1A2, sequence (P05177 whole entry): as above
Choline transporter (CHT1) (SLC5A7), sequence (Q9GZV3 whole entry): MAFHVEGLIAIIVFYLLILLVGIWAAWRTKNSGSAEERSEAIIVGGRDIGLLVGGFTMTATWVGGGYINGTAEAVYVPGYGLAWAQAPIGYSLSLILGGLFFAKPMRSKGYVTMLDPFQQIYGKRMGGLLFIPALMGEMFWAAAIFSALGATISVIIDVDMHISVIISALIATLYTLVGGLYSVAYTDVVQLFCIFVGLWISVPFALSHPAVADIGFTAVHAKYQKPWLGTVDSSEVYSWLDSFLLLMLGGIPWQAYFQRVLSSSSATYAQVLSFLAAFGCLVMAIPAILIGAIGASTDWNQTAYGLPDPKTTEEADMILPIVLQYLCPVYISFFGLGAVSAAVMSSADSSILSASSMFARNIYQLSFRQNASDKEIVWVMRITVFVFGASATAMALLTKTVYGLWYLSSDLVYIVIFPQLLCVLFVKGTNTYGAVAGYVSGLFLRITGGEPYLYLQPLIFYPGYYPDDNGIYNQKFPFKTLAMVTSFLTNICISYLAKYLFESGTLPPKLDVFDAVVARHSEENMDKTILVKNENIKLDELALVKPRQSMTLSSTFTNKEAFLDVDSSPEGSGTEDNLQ
Muscarinic acetylcholine receptor 3 (M3), sequence (P20309 whole entry): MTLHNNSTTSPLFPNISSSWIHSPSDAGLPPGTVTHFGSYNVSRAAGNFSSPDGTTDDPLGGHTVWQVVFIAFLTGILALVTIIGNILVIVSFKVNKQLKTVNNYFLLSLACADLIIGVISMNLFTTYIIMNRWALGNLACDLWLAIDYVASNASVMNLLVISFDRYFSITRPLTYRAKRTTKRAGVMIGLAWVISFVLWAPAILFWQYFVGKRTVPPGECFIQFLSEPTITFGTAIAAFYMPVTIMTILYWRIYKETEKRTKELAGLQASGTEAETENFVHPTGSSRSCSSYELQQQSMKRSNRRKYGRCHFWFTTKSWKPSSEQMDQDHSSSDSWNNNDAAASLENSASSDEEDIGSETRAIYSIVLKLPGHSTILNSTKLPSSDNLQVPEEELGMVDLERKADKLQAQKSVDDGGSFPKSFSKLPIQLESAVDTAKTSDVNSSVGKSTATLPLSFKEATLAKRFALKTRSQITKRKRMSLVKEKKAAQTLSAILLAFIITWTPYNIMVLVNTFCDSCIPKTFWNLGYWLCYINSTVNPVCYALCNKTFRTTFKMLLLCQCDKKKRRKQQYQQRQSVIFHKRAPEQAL
Nicotinic acetylcholine receptor complex (alpha-4 / beta-2), sequence (P43681 29-627 limits assumed): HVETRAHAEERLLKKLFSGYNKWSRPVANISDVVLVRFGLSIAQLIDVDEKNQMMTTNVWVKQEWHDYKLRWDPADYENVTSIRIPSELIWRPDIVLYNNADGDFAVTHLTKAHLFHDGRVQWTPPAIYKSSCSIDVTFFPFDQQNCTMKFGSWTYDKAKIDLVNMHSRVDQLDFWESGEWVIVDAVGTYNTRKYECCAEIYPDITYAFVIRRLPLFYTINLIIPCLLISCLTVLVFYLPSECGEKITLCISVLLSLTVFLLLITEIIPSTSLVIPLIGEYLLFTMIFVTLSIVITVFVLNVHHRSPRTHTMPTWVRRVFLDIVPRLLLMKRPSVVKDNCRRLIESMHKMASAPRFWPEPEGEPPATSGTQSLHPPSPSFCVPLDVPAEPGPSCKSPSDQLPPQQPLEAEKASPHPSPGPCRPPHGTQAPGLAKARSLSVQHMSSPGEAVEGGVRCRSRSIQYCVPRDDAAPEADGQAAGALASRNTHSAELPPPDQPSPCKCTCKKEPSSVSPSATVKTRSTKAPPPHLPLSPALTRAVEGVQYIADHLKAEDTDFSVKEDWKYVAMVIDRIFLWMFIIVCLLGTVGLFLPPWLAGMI
Nicotinic acetylcholine receptor complex (alpha-4 / beta-2), sequence (P17787 26-502): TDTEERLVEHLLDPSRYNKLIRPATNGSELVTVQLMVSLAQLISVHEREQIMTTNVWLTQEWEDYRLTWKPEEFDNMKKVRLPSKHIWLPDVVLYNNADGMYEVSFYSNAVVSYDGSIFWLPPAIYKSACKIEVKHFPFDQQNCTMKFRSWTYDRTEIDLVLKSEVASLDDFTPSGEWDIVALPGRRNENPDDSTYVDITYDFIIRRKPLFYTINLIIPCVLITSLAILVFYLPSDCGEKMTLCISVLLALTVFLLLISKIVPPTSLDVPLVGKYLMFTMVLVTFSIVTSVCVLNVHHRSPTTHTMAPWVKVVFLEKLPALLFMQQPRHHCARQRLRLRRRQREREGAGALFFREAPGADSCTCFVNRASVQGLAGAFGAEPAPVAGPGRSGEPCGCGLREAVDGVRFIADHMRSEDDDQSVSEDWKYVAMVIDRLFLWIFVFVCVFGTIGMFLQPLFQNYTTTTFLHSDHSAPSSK

## CC(C)(C)c1ccc(CC[C@@](O)(CC(=O)O)C(=O)O)cc1 [Compound 2]
[1]
  Kp uu at 1 h, 1 µM: 29 ± 5
Genetic toxicity assays
  genetic toxicity: negative
Human hepatocytes
  label incorporation in TAG: decreased dose-dependently
CYP1A2
  inhibition at 3 µM: < 10%
[2]
  interaction/inhibition of CYP1A2: no significant interaction/inhibition
CYP3A4
  inhibition at 3 µM: 12%
[3]
  interaction/inhibition of CYP3A4: no significant interaction/inhibition
[4]
  inhibition at 100 µM: < 10%
[5]
  IC50: > 50 µM
[6]
  inhibition at 100 µM: < 10%
[7]
  IC50: > 30 µM
[8]
  inhibition at 100 µM: < 10%
[9]
  inhibition at 100 µM: < 10%
[10]
  inhibition at 100 µM: < 10%
[11]
  inhibition at 10 µM: < 10%
[12]
  inhibition at 100 µM: < 10%
[13]
  inhibition at 100 µM: < 10%
Dopamine receptor 2 (D2)
  inhibition at 100 µM: < 10%
[14]
  inhibition at 100 µM: < 10%
[15]
  inhibition at 100 µM: < 10%
[16]
  inhibition at 100 µM: < 10%
[17]
  inhibition at 100 µM: < 10%
[18]
  inhibition at 100 µM: < 10%
[19]
  inhibition at 100 µM: < 10%
[20]
  inhibition at 100 µM: < 10%
[21]
  inhibition at 10 µM: < 10%
DIO mice
  plasma glucose concentrations: modest but significant reductions
